Results published in patent US20250375417A1, “OREXIN RECEPTOR 2 (OX2R) AGONIST FOR USE IN NARCOLEPSY TYPE 1 (NT1)” (TAKEDA PHARMACEUTICAL COMPANY LIMITED, priority 2024, published 2025).

Legend:
[1] = test system: participants with NT1; assay: SF-36 and EQ-5D-5L health-related quality of life, Phase 2 NT1 trial; format: in vivo, human
Text: Health conditions such as mobility, self-care, usual activities, pain/discomfort, and/or anxiety/depression as related to NT1 can be assessed by the EQ-5D-5L assessment. The EQ-5D-5L is a standardized 5-item measure of health status developed by the EuroQol Group to provide a simple, generic measure of health for clinical and economic appraisal that has been used in a wide range of health conditions and treatments (Herdman et al. 2011; Janssen et al. 2013). The EQ-5D-5L consists of a descriptive system and the EuroQol visual analog scale (VAS). The descriptive system comprises 5 dimensions: mobility, self-care, usual activities, pain/discomfort, and anxiety/depression. The EuroQol VAS records the participant's self-rated health on a vertical VAS. This can be used as a quantitative measure of health outcome that reflects the participant's own judgment. The scores on these 5 dimensions can be presented as a health profile or can be converted to a single summary index number (utility) reflecting preferability compared with other health profiles.
Patient health self-assessments can be measured by the SF-36. The SF-36 is a 36-item, participant-reported survey of participant health. […] Similar to each scale, the component scores are also positively scored so that higher scores represent better health-related quality-of-life. […]

[2] = test system: participants with NT1; assay: Safety (TEAEs), LTE study interim analysis, NT1 participants; format: in vivo, human; details: for TEAE insomnia, frequency / TEAE micturition frequency, frequency / TEAE micturition urgency, frequency: LTE
Text: This was a phase 2/3 multicenter, dose-blind, long-term extension (LTE) study of Compound A. Participants from controlled studies conducted with Compound A, who had up to a 3-month dosing gap between their parent study and the screening period for this study, were eligible to participate in this study.
Day 1 dosing for all participants occurred in-clinic with PK and safety assessments. Participants who were undergoing nocturnal polysomnography (nPSG) and an MWT during the final assessment of their Compound A parent study had the option of staying overnight in the clinic on Day −1 so they were already in the clinic for Day 1 the following day. Clinic visits after Week 4 were scheduled monthly up to Week 12, then approximately every 3 months until the end of Year 2 (Weeks 2, 4, 8, 12, 26, 38, 52, 64, 78, 90, and 104). […] Participants had either an in-clinic or home health follow up visit 4 weeks after their last dose. All other visits could be conducted through home health. Laboratory tests for safety were obtained biweekly up until Week 12, followed by monthly until Year 1, and then approximately every 3 months thereafter. Monthly phone calls were conducted to collect adverse event (AE) and concomitant medication information in Year 2.
In this dose-blind study, all participants received Compound A. Participants entering the study with or without a dosing gap from a parent Compound A study remained on the same indication-specific dose of Compound A assigned to them in their parent study. Participants randomized to placebo or comparator in their parent study were randomized to one of the indication-specific dose regimens of Compound A available in this study. The investigator could request a change to either a higher or lower dose level of Compound A to be dispensed at Week 8 in the LTE treatment period. Subsequently, if the participant wished to return to their original LTE dose, this could be implemented at Week 12 in the LTE. No further dose adjustments were allowed for the duration of the study, except on a case by case basis as approved by the sponsor. The dose never exceeded the maximum designated dose level in the study. For a participant with NT1, if the next highest dose was the 7 mg total daily dose, the participant was randomized to 1 of those 2 dose regimens (i.e., 2 mg followed by 5 mg, or 7 mg once daily).
Standard safety endpoints (e.g., TEAEs, physical examination findings, vital signs, 12-lead ECG measures, clinical laboratory results) for early clinical investigation were included. Further, because cardiovascular effects had been noted in nonclinical models with Compound A and OX2R agonists in general, and these effects are thought to be on-target effects, close monitoring of cardiovascular parameters, including time-matched BP measurements before and after dosing to detect any changes and potential tolerance in BP after the administration of repeat doses to participants with NT1 or NT2 were included.
For participants with NT1: • Dose Regimen 1: 0.5 mg twice daily, approximately 3 hours apart; • Dose Regimen 2: 2 mg followed by 2 mg, approximately 3 hours apart; • Dose Regimen 3: 2 mg followed by 5 mg, approximately 3 hours apart; * • Dose Regimen 4: 7 mg once daily.*
Participants completing either Example 1 or Example 2 with ≤3 months between parent study-end and LTE screening could enroll. Primary endpoint is the occurrence of treatment-emergent adverse events (TEAEs); secondary endpoints are change from baseline (parent study) in sleep onset latency on the Maintenance of Wakefulness Test (SOL-MWT), Epworth Sleepiness Scale (ESS) score, and weekly cataplexy rate (WCR). Participants with NT1 receive oral Compound A 0.5 mg twice 3 hours apart, 2 mg twice 3 hours apart, 2 mg then 5 mg 3 hours apart, or 7 mg once daily. Dose adjustments are allowed at specific timepoints (8 weeks and 12 weeks of the study and at other weeks on a sponsor-approved case-by-case basis). TEAEs are summarized under the dose at TEAE onset.

[3] = 0.5 mg/0.5 mg (dose at TEAE onset)

`CCS(=O)(=O)N[C@@H]1[C@H](Cc2cccc(-c3cc(F)cc(F)c3)c2F)N(C(=O)C(C)(C)O)CC1(F)F` [Compound A, N-{(2S,3R)-4,4-difluoro-1-(2-hydroxy-2-methylpropanoyl)-2-[(2,3′,5′-trifluoro[1,1′-biphenyl]-3-yl)methyl]pyrrolidin-3-yl}ethanesulfonamide] was tested, and the “SF-36 summary scores, change from baseline versus placebo” value ([1]; all Compound A doses (FIG. 22)) was “Statistically significant improvements”, the “EQ-5D (index score and VAS), change from baseline versus placebo” value ([1]; all Compound A doses (FIG. 23)) was “Statistically significant improvements” and the “Hepatotoxicity or visual disturbances” value ([2]; LTE interim) was “No cases of hepatotoxicity or visual disturbances were reported”. The “Participants with severe drug-related TEAEs (insomnia, cataplexy)” value ([2]; LTE interim (N=104)) was “Two”, the “Participants discontinued due to TEAEs” value ([2]; LTE interim (N=104), 3 unrelated to Compound A) was 6 and the “Participants who experienced a TEAE” value ([2]; LTE interim analysis (N=104), all doses) was 54.8%. The “TEAE insomnia, frequency” value [2, 3] was 7.1%, the “TEAE micturition frequency, frequency” value [2, 3] was 10.7% and the “TEAE micturition urgency, frequency” value [2, 3] was 10.7%. The “TEAE insomnia, frequency” value ([2]; 2 mg/2 mg (dose at TEAE onset)) was 10.9%, the “TEAE micturition frequency, frequency” value ([2]; 2 mg/2 mg (dose at TEAE onset)) was 4.3% and the “TEAE micturition urgency, frequency” value ([2]; 2 mg/2 mg (dose at TEAE onset)) was 2.2%. The “TEAE insomnia, frequency” value ([2]; 2 mg/5 mg (dose at TEAE onset)) was 10.8%, the “TEAE micturition frequency, frequency” value ([2]; 2 mg/5 mg (dose at TEAE onset)) was 8.1% and the “TEAE micturition urgency, frequency” value ([2]; 2 mg/5 mg (dose at TEAE onset)) was 2.7%. The “TEAE insomnia, frequency” value ([2]; 7 mg (dose at TEAE onset)) was 7.9%, the “TEAE micturition frequency, frequency” value ([2]; 7 mg (dose at TEAE onset)) was 7.9% and the “TEAE micturition urgency, frequency” value ([2]; 7 mg (dose at TEAE onset)) was 10.5%.
